From patent US10759754B2, “Aminobenzoic acid derivatives for use as anti-inflammatory agents, anti-metastatic agents and/or anticancer agents” (3R VALO, S.E.C., priority 2016, dated 2020)
Entries after “also recorded” stand apart in the source; their conditions may differ.

What was measured:
MHC-II = assay: Flow cytometry of MHC-II surface antigen in IFNγ-activated human macrophages; assay type: cell-based; conditions: compound 4 at 10 μM, compound 5 at 25 μM
Procedure: Surface antigen expression analysis. To study membrane receptor expression, THP1-derived human macrophages (750×10^4 cells/mL) were pretreated for 3 h with DMSO or compounds 4 and 5, and then left untreated (control) or treated for 48 h with 50 U/mL IFNγ. The expression level of MHC-II and CD40 was evaluated by flow cytometry as described.^21-23

[1] = tested on: macrophage-like J774A.1 cells; assay: IFNγ/TNFα-induced NO production (Griess) in J774A.1 cells; assay type: cell-based, murine; conditions: pretreatment then IFNγ and TNFα
Procedure: (§1) Evaluation of NO and Urea production by chemical methods. The MB49-I cells and the J774A.1 cells (25×10^3 cells/well) were grown and pretreated, as indicated, with various anti-inflammatory derivatives, precursors and mono-functional derivatives for a period of 3 h. Afterwards the cells were washed twice with 10% FBS RPMI-1640 and then activated to produce NO for a period of 24 h with cytokines INFγ and TNFα. NO production was measured using the Griess reagent method as previously described.^27 This method involves the detection of nitrite ions (NO2^−) formed by the spontaneous oxidation of NO under physiological conditions. According the manufacture procedure (Life Technologies; # G-7921), equal volumes of sulfanilic acid and N-(1-naphthyl)ethylenediamine are mixed together to form the Griess reagent. In the presence of NO2^−, sulfanilic acid is converted to a diazonium salt, which in turn is coupled to N-(1-naphthyl)ethylenediamine to produce a pink coloration that is measured with a spectrophotometer (Biotek, synergy HT) at 548 nm. In the same manner, urea synthesis through arginase-1 activity was measured using commercially available kit.

[2] = tested on: IL6/STAT3 signaling pathway; assay: Western blot of IL6/STAT3 signaling in MB49-I cells; assay type: cell-based, murine; conditions: doses as lower as 10 μM
Procedure: (§2) Cell signaling studies: THP1-derived human macrophages (750×10^3 cells/mL) and MB49-I cells (500×10^3 cells/mL) were pretreated for 30 min with vehicle (DMSO), compounds 4 and 5, at 10, 25 or 50 μM; and then washed and recovered immediately (t=0 min) or after 30 min of activation with 50 U/mL IFNγ, 25 ng/mL IL6, or 10 ng/mL TNFα. Cell lysates were prepared and analyzed by immunoblotting as described.^21-23,25 Briefly, protein samples were resolved by SDS-PAGE under reducing conditions and transferred onto a PVDF membrane. Blots were first probed with rabbit polyclonal antibodies against phospho-STAT1 (pSTAT1), pSTAT3, or p-IκB (all at 1:2000) overnight at 4° C. Blots were then incubated with HRP-conjugated goat anti-rabbit IgG Ab (1:3000) for 1 h at room temperature. The same blots were stripped and then probed with anti-STAT1 or anti-STAT3 Abs (both at 1:1000). In both cases, probed molecules were visualized using an enhancement chemiluminescence detection kit (Thermo Fisher Scientific).

MDA-MB-241 cells = assay: 3D spheroid-based tumor invasion assay; assay type: cell-based, human; conditions: 30 μM, day 4 vs day 0
Procedure: Cellular analysis of 3D spheroid-based tumor invasion assays. Cell preparation and spheroid formation were performed following the manufacturer instructions (Corning). Briefly, MDA-MB-231 cells were harvested and diluted to a concentration of 5×10^4 cells/mL in (complete) culture media supplemented with 10% serum. 100 μL of cell suspension was then pipetted to appropriate 96 well spheroid formation plate and placed at 37° C./5% CO2. Spheroid formation was monitored every 24 hours. The typical cell aggregation period was 48 hours. Upon spheroid formation completion, 70 μL of complete medium was removed from each well, and replaced by 70 μL of serum-free medium. This was repeated on a daily basis to create a serum starvation period of 48 hours. Matrigel matrix (100 μL) was then added to each well. The plate was centrifuged at 300×g for 5 minutes in a swinging bucket centrifuge. The plate was then transferred to a 37° C./5% CO2 incubator for one hour to initiate gel formation. Following the 1-hour gel formation incubation period, DMSO or compound 4 was added to appropriate wells during 60 minutes. After pretreatment, the media was removed and replaced by complete culture media, and then the media was changed every day for a period of 4 days. […] These protrusions were identified, and their area and perimeter properly quantified using the ImageJ software (National Institutes of Health).

UBC cell line MB49-I = assay: IFNγ/TNFα-induced NO production (Griess) in MB49-I cells; assay type: cell-based, murine; conditions: 10 and 50 μM
Procedure: as §1

C57Bl/6J mice = assay: Acute toxicity study with episodic i.p. injections in C57Bl/6J mice; assay type: in vivo
peritoneal macrophages = assay: NO and urea production in peritoneal macrophages after in vivo treatment of MB49 tumor-bearing mice; conditions: treatment at 90 and 150 μM; macrophages recovered day 26
Procedure: as §1, with “According the manufacture procedure (Life Technologies; # G-7921), equal volumes of sulfanilic acid and N-(1-naphthyl)ethylenediamine are mixed together to form the Griess reagent.” left out
Ectopic UBC model. […] Growth rates of the s.c. tumors were monitored. The size of tumors was determined every 3 days for 24-28 days using a digital caliper and by measuring luciferin luminescence at days 15 and 25 using the IVIS imaging system. A blinded observer measured tumor length and width. […]

STAT1 = assay: Western blot of phosphorylated STAT1 in IFNγ-activated human macrophages; assay type: cell-based; conditions: human macrophages pretreated 30 min at 10 and 50 μM; 30 min activation with 50 U/mL IFNγ
Procedure: as §2

[3] = tested on: TNFα/NFκB signaling pathway; assay: Western blot of TNFα/NFκB signaling in MB49-I cells; assay type: cell-based, murine; conditions: doses as lower as 10 μM
Procedure: as §2

human UBC T24 cells = assay: Motility (scratch) assay, IL6-induced, in T24 cells; assay type: cell-based; conditions: 30 μM
[4] = i.p. 0, 90, 150, 300 μM during 3 weeks

**Q.** `CC(C)(C)OC(=O)NNC(=O)c1ccc(N2C(=O)C=CC2=O)cc1` [Compound 4, N′-[4-(2,5-dioxo-2,5-dihydro-pyrrol-1-yl)-benzoyl]-hydrazine carboxylic acid tert-butyl ester] was tested. Which “IFNγ-induced MHC-II expression” value (MHC-II) did it give?
**A.** effective in reducing; also recorded: efficiently inhibited

**Q.** And the “combined IFNγ/TNFα-induced NO synthesis” value [1]?
**A.** effective in reducing; also recorded: efficiently inhibited

**Q.** What about the “IL6/STAT3 signaling pathway (Western blot)” value [2] of the same compound?
**A.** inhibit; also recorded: efficiently inhibited

**Q.** What about the “invasiveness activity in 3D spheroid-based tumor invasion assay” value (MDA-MB-241 cells) of the same compound?
**A.** anti-invasion properties; also recorded: efficiently inhibited

**Q.** What about the “combined IFNγ/TNFα-induced NO synthesis” value (UBC cell line MB49-I) of the same compound?
**A.** efficiently inhibited

**Q.** What about the tolerability in mice (C57Bl/6J mice; concentrations up to 300 μM) of the same compound?
**A.** well tolerated

**Q.** And the hematocrit (C57Bl/6J mice; [4])?
**A.** no obvious effect

**Q.** What about the “normal development and viability” value (C57Bl/6J mice; [4]) of the same compound?
**A.** no obvious effect

**Q.** And the organs weight (C57Bl/6J mice; [4])?
**A.** no obvious effect

**Q.** And the “liver histological analysis (hepatocellular injury, inflammation, fibrosis, steatosis)” value (C57Bl/6J mice; i.p. up to 300 μM during 3 weeks)?
**A.** no evidence of toxicity; also recorded: does not induce features of liver dysfunction

**Q.** And the “NO production in peritoneal macrophages” value (peritoneal macrophages)?
**A.** significant decrease; also recorded: significantly decrease

**Q.** What about the “urea synthesis and release in peritoneal macrophages” value (peritoneal macrophages) of the same compound?
**A.** significant decrease; also recorded: significantly decrease

**Q.** And the “IFNγ-induced STAT1 activation (ratio of phosphorylated/no phosphorylated proteins)” value (STAT1)?
**A.** decreased; also recorded: efficiently inhibited

**Q.** And the “TNFα/NFκB signaling pathway (Western blot)” value [3]?
**A.** inhibit; also recorded: efficiently inhibited

**Q.** And the “IL6-induced motility (scratch assay)” value (human UBC T24 cells)?
**A.** inhibit; also recorded: efficiently inhibited
